# Results from patent US20250250230A1, “HETEROCYCLIC COMPOUND” (TAKEDA PHARMACEUTICAL COMPANY LIMITED, priority 2022, published 2025).
# Biological target: T1, human orexin type 2 receptor (Homo sapiens, UniProt O43614)
# T1 construct: expressed in transfected cells
# T1 sequence (O43614 1-444): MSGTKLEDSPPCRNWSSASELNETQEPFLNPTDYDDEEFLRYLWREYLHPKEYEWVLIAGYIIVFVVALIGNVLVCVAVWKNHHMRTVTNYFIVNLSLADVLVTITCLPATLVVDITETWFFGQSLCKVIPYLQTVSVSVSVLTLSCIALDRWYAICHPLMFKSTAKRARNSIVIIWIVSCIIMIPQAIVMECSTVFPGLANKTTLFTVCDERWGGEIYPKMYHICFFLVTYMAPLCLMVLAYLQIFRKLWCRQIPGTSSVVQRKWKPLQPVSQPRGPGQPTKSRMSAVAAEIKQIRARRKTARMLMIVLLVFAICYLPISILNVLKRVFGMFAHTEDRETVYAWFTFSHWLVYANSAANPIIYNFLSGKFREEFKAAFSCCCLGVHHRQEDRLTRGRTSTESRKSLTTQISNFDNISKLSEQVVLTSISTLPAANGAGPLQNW
# Test: Measurement of orexin type 2 receptor agonist activity (calcium fluorescence, Fluo-4 AM, FDSS)
# Assay type: cell-based
# Details: test compound 3 μM; CHO cells expressing human OX2 receptor; DMSO = 0%, orexin A (human) = 100%
# Summary of the method: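 CHO-K1 cells stably expressing human OX2R were loaded with Fluo-4 AM (30 min 37 °C, 30 min RT) in HEPES-buffered HBSS with 0.1% BSA and probenecid. Calcium fluorescence was followed on FDSS for 2 min after compound addition; activity normalised to DMSO (0%) and 10 nM orexin A (100%).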
row,"OX2R agonist activity (3 μM, %) [%]",SMILES
1,88,"CS(=O)(=O)N[C@H]1CCN(C(=O)C2(C#N)CC2c2ccccc2-c2c(F)cccc2F)C1 (mixture of isomers) [Example 316, a mixture of rac-N-{(3S)-1-[(1R,2S)-1-cyano-2-(2′,6′-difluoro[1,1′-biphenyl]-2-yl)cyclopropane-1-carbonyl]pyrrolidin-3-yl}methanesulfonamide and N-{(3S)-1-[(1S,2R)-1-cyano-2-(2′,6′-difluoro[1,1′-biphenyl]-2-yl)cyclopropane-1-carbonyl]pyrrolidin-3-yl}methanesulfonamide]"
2,95,"COCC1(C(=O)N2CC[C@H]2CNS(C)(=O)=O)CC1c1ccccc1-c1c(F)cccc1F (stereo partly drawn) [Example 347, N-({(2S)-1-[(1R,2S)-2-(2′,6′-difluoro[1,1′-biphenyl]-2-yl)-1-(methoxymethyl)cyclopropane-1-carbonyl]azetidin-2-yl}methyl)methanesulfonamide, or N-({(2S)-1-[(1S,2R)-2-(2′,6′-difluoro[1,1′-biphenyl]-2-yl)-1-(methoxymethyl)cyclopropane-1-carbonyl]azetidin-2-yl}methyl)methanesulfonamide]"
3,59,"CS(=O)(=O)NC1CN(C(=O)C2CC2c2ccccc2-c2c(F)cccc2F)CC1F (racemic) [Example 137, a mixture of rac-N-{(3S,4R)-1-[(1R,2R)-2-(2′,6′-difluoro[1,1′-biphenyl]-2-yl)cyclopropane-1-carbonyl]-4-fluoropyrrolidin-3-yl}methanesulfonamide and rac-N-{(3R,4S)-1-[(1R,2R)-2-(2′,6′-difluoro[1,1′-biphenyl]-2-yl)cyclopropane-1-carbonyl]-4-fluoropyrrolidin-3-yl}methanesulfonamide]"
4,101,"CCS(=O)(=O)NC[C@@H]1CCN1C(=O)[C@@H]1C[C@@]1(F)c1ccccc1-c1c(F)cccc1F (single isomer, unassigned) [Example 351, N-({(2R)-1-[(1S,2S)-2-(2′,6′-difluoro[1,1′-biphenyl]-2-yl)-2-fluorocyclopropane-1-carbonyl]azetidin-2-yl}methyl)ethanesulfonamide, or N-({(2S)-1-[(1S,2S)-2-(2′,6′-difluoro[1,1′-biphenyl]-2-yl)-2-fluorocyclopropane-1-carbonyl]azetidin-2-yl}methyl)ethanesulfonamide]"
5,100,"CN(C)S(=O)(=O)NC[C@H]1CCN1C(=O)[C@@H]1C[C@H]1c1ccccc1-c1c(F)cccc1F [Example 298, N′-({(2R)-1-[(1R,2R)-2-(2′,6′-difluoro[1,1′-biphenyl]-2-yl)cyclopropane-1-carbonyl]azetidin-2-yl}methyl)-N,N-dimethylsulfuric diamide]"
6,87,"CS(=O)(=O)NC1CN(C(=O)C2CC2c2ccccc2-c2c(F)cccc2F)CC1(F)F (racemic) [Example 130, a mixture of rac-N-{(3R)-1-[(1R,2R)-2-(2′,6′-difluoro[1,1′-biphenyl]-2-yl)cyclopropane-1-carbonyl]-4,4-difluoropyrrolidin-3-yl}methanesulfonamide and rac-N-{(3S)-1-[(1R,2R)-2-(2′,6′-difluoro[1,1′-biphenyl]-2-yl)cyclopropane-1-carbonyl]-4,4-difluoropyrrolidin-3-yl}methanesulfonamide]"
7,103,"CCS(=O)(=O)NC1CCCN(C(=O)C2CC2c2ccccc2-c2c(F)cccc2F)C1 (racemic) [Example 28, a mixture of rac-N-{(3R)-1-[(1R,2R)-2-(2′,6′-difluoro[1,1′-biphenyl]-2-yl)cyclopropane-1-carbonyl]piperidin-3-yl}ethanesulfonamide and rac-N-{(3S)-1-[(1R,2R)-2-(2′,6′-difluoro[1,1′-biphenyl]-2-yl)cyclopropane-1-carbonyl]piperidin-3-yl}ethanesulfonamide]"
8,104,"CN(C)S(=O)(=O)NCC1CCN1C(=O)C1CC1c1ccccc1-c1c(F)cccc1F (stereo not drawn) [Example 250, N′-({1-[2-(2′,6′-difluoro[1,1′-biphenyl]-2-yl)cyclopropane-1-carbonyl]azetidin-2-yl}methyl)-N,N-dimethylsulfuric diamide optical isomer]"
9,103,"CS(=O)(=O)N[C@@H]1CN(C(=O)C2CC2c2c(-c3c(F)cccc3F)csc2F)CCC1(F)F (stereo partly drawn) [Example 378, N-[(3R)-1-{(1R,2R)-2-[4-(2,6-difluorophenyl)-2-fluorothiophen-3-yl]cyclopropane-1-carbonyl}-4,4-difluoropiperidin-3-yl]methanesulfonamide, or N-[(3R)-1-{(1S,2S)-2-[4-(2,6-difluorophenyl)-2-fluorothiophen-3-yl]cyclopropane-1-carbonyl}-4,4-difluoropiperidin-3-yl]methanesulfonamide]"

# The remaining lines, values behind:
row,SMILES,"OX2R agonist activity (3 μM, %) [%]"
1,"Cc1nnc(C2(NS(C)(=O)=O)CCN(C(=O)[C@@H]3C[C@@]3(F)c3ccccc3-c3c(F)cccc3F)C2)o1 (mixture of isomers) [Example 422, a mixture of N-[(3R)-1-[(1S,2S)-2-(2′,6′-difluoro[1,1′-biphenyl]-2-yl)-2-fluorocyclopropane-1-carbonyl]-3-(5-methyl-1,3,4-oxadiazol-2-yl)pyrrolidin-3-yl]methanesulfonamide and N-[(3S)-1-[(1S,2S)-2-(2′,6′-difluoro[1,1′-biphenyl]-2-yl)-2-fluorocyclopropane-1-carbonyl]-3-(5-methyl-1,3,4-oxadiazol-2-yl)pyrrolidin-3-yl]methanesulfonamide]",75
2,"CNS(=O)(=O)NC[C@@H]1CCN1C(=O)[C@@H]1C[C@H]1c1ccccc1-c1c(F)cccc1F [Example 339, N-({(2S)-1-[(1R,2R)-2-(2′,6′-difluoro[1,1′-biphenyl]-2-yl)cyclopropane-1-carbonyl]azetidin-2-yl}methyl)-N′-methylsulfuric diamide]",103
3,"CS(=O)(=O)NC12CC1CN(C(=O)C1CC1c1ccccc1-c1c(F)cccc1F)C2 (racemic) [Example 124, a mixture of rac-N-{(1S,5R)-3-[(1R,2R)-2-(2′,6′-difluoro[1,1′-biphenyl]-2-yl)cyclopropane-1-carbonyl]-3-azabicyclo[3.1.0]hexan-1-yl}methanesulfonamide and rac-N-{(1R,5S)-3-[(1R,2R)-2-(2′,6′-difluoro[1,1′-biphenyl]-2-yl)cyclopropane-1-carbonyl]-3-azabicyclo[3.1.0]hexan-1-yl}methanesulfonamide]",104
4,"Cc1ccccc1-c1ccccc1C1CC1C(=O)N1CCCC(NS(C)(=O)=O)CC1 (racemic) [Example 52, a mixture of rac-N-{(4R)-1-[(1R,2R)-2-(2′-methyl[1,1′-biphenyl]-2-yl)cyclopropane-1-carbonyl]azepan-4-yl}methanesulfonamide and rac-N-{(4S)-1-[(1R,2R)-2-(2′-methyl[1,1′-biphenyl]-2-yl)cyclopropane-1-carbonyl]azepan-4-yl}methanesulfonamide]",65
5,"CS(=O)(=O)NC1CCCN(C(=O)C2CC2c2ccc(C(F)F)cc2-c2c(F)cccc2F)CC1 (racemic) [Example 229, a mixture of rac-N-[(4R)-1-{(1R,2R)-2-[5-(difluoromethyl)-2′,6′-difluoro[1,1′-biphenyl]-2-yl]cyclopropane-1-carbonyl}azepan-4-yl]methanesulfonamide and rac-N-[(4S)-1-{(1R,2R)-2-[5-(difluoromethyl)-2′,6′-difluoro[1,1′-biphenyl]-2-yl]cyclopropane-1-carbonyl}azepan-4-yl]methanesulfonamide]",64
6,"CS(=O)(=O)NC([C@@H]1CCN1C(=O)[C@@H]1C[C@@]1(F)c1ccccc1-c1c(F)cccc1F)C1(O)CC1 (stereo partly drawn) [Example 418, N-[(R)-{(2S)-1-[(1S,2S)-2-(2′,6′-difluoro[1,1′-biphenyl]-2-yl)-2-fluorocyclopropane-1-carbonyl]azetidin-2-yl}(1-hydroxycyclopropyl)methyl]methane-sulfonamide, or N-[(S)-{(2S)-1-[(1S,2S)-2-(2′,6′-difluoro[1,1′-biphenyl]-2-yl)-2-fluorocyclopropane-1-carbonyl]azetidin-2-yl}(1-hydroxycyclopropyl)methyl]methanesulfonamide]",99
7,"CS(=O)(=O)N[C@@H]1CN(C(=O)[C@@H]2C[C@H]2c2ccccc2-c2c(F)cccc2F)CC[C@@H]1O [Example 270, N-{(3R,4S)-1-[(1R,2R)-2-(2′,6′-difluoro[1,1′-biphenyl]-2-yl)cyclopropane-1-carbonyl]-4-hydroxypiperidin-3-yl}methanesulfonamide]",64
8,"CCS(=O)(=O)NC[C@@H]1[C@@H](O)CN1C(=O)[C@@H]1C[C@@]1(F)c1ccccc1-c1c(F)cccc1F [Example 382, N-({(2R,3S)-1-[(1S,2S)-2-(2′,6′-difluoro[1,1′-biphenyl]-2-yl)-2-fluorocyclopropane-1-carbonyl]-3-hydroxyazetidin-2-yl}methyl)ethanesulfonamide]",96
9,"CS(=O)(=O)NCC1CCN1C(=O)C1CC1c1ccccc1-c1c(F)cccc1F (stereo not drawn) [Example 276, N-({1-[2-(2′,6′-difluoro[1,1′-biphenyl]-2-yl)cyclopropane-1-carbonyl]azetidin-2-yl}methyl)methylsulfonamide optical isomer]",101
